We go through seven compounds from PubChem BioAssay (NCI).

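1) Cells in 96-well plates. 2) Compound, 48 h, 5 concentrations. 3) Linear interpolation between surrounding doses. 4) Unreached endpoint = highest concentration. Here, GI50 denotes the concentration required for 50% inhibition of growth. At the TGI there is no net growth.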

As usually defined, the GI50 is the concentration that inhibits growth by half. As a reminder, the TGI is the concentration at which net growth stops.

Common to all, as to experiment: DTP human tumour cell line panel, 48 h
Assay [1] has as its system PC-3 prostate.
The test system of assay [2] is OVCAR-4 ovarian.
The test system of assay [3] is TK-10 renal.
Assay [4] relates to T-47D breast.
The test system of assay [5] is SK-MEL-2 melanoma.
Assay [6] has as its system UACC-62 melanoma.
Assay [7] deals with SR leukemia.
Assay [8] has as its system OVCAR-3 ovarian.
Assay [9] has as its system EKVX NSCLC.
Assay [10] has as its system 786-0 renal.

Regarding `CC[C@]1(O)CC2CN(CCc3c([nH]c4ccccc34)C(C(=O)OC)(c3cc4c(cc3OC)N(C=O)[C@H]3[C@@](O)(C(=O)OC)[C@H](OC(C)=O)[C@]5(CC)[C@@H]6C[C@@H]6CN6CC[C@]43[C@@H]65)C2)C1` (some centres undefined), the 50% growth inhibitory concentration (GI50) in assay [1] was under 0.00325 µM; in [2], under 0.00325 µM; in assay [3] it was under 0.00325 µM; in [4], 0.228 µM; in [5] it was under 0.00325 µM; in assay [6] it was under 0.00325 µM. The GI50 in [7], in [8], in assay [9] and in assay [10] was under 0.00325 µM each time. Also, the TGI in assay [1] is over 12.3 µM; in assay [2], over 29.9 µM; in assay [3], 17.5 µM; in [5], 3.67 µM; in assay [6], over 21 µM; in [7] it was 0.247 µM. In addition, the TGI in assay [8] was under 0.00325 µM; in assay [9], over 32.5 µM; in [10] it was 6.65 µM.
As for `COC(=O)COc1ccccc1/C=C1/N=C(c2ccccc2)N(c2c(C)n(C)n(-c3ccccc3)c2=O)C1=O`, the GI50 in assay [1] is over 100 µM; in assay [2], 75.1 µM; in assay [3], over 100 µM; in assay [4], 30.5 µM; in assay [5], 25 µM; in [6] it was 83.9 µM. The GI50 is 31.7 µM in [7], 20.9 µM in [8], over 100 µM in assay [9] and over 100 µM in [10]. Also, the TGI is over 100 µM in assay [1]; over 100 µM in assay [2]; over 100 µM in assay [3]; over 100 µM in [4]; 56.4 µM in [5]; over 100 µM in assay [6]. In addition, the TGI in assay [7] is over 100 µM; in assay [8] it was 50.9 µM; in assay [9], over 100 µM; in [10] it was over 100 µM.
Take `O=C(NNC1=NS(=O)(=O)c2ccccc2N1c1ccccc1)c1cnccn1`: the GI50 in assay [1], in assay [2], in [3], in assay [4], in assay [5] and in [6] was over 100 µM in each case. Further, the GI50 in assay [7], in assay [8], in [9] and in assay [10] was over 100 µM throughout. For the same compound, the TGI in [1], in [2], in assay [3], in assay [4], in assay [5] and in assay [6] was over 100 µM each time. Besides, the TGI in [7], in assay [8], in assay [9] and in assay [10] was over 100 µM in each case.
Consider `COC(=O)NC1=Nc2ccccc2C(=O)NN1`, for which the concentration for total growth inhibition (TGI) in [1], in [2], in [3], in assay [4], in assay [5] and in assay [6] was over 100 µM in each case. The TGI in assay [7], in assay [8], in assay [9] and in assay [10] was over 100 µM throughout.
For `CCc1nc(N)nc(N)c1-c1ccc(N2CCNCC2)c([N+](=O)[O-])c1`, the TGI in assay [1] was over 100 µM; in assay [2], over 100 µM; in [3] it was over 100 µM; in [4], over 100 µM; in [5], over 90.5 µM; in [6], over 100 µM. In addition, the TGI was over 100 µM in assay [7], over 100 µM in assay [8], over 100 µM in assay [9] and over 74.3 µM in assay [10].
`C=C(CC)C(=O)c1ccc(OCC(=O)O)c(Cl)c1Cl`: the TGI in assay [1] is over 81.8 µM; in assay [2], 43.6 µM; in [3] it was 30.2 µM; in assay [4] it was 27.6 µM; in [5], 33.2 µM; in [6] it was 30.3 µM. Also, the TGI in [7] is over 100 µM; in assay [8] it was 30.1 µM; in assay [9], 38.3 µM; in assay [10], 19.7 µM.
For the compound `Cc1c(Br)c(Br)c2c3c1nc(N1CCNCC1)n3CCC2`, the GI50 in assay [1] was 1.04 µM; in assay [2], 2.46 µM; in [3], 1.56 µM; in [4] it was 2.35 µM; in assay [5] it was 1.95 µM; in assay [6], 1.62 µM. Also, the GI50 was 1.6 µM in [7], 1.56 µM in [8], 1.9 µM in assay [9] and 2.63 µM in assay [10]. The TGI in assay [1] was 2.25 µM; in [2] it was 6.1 µM; in assay [3] it was 3.12 µM; in [4] it was 6.36 µM; in [5], 4.06 µM; in [6], 3.08 µM. Moreover, the TGI in assay [7] was found to be 5.24 µM; in [8], 3.01 µM; in assay [9] it was 4.32 µM; in assay [10], 7.33 µM.
